Source: patent US20240025892A1 (priority 2020, published 2024)
Where two headings read alike, the source gives them in different places.

What was measured:
Recombinant SIK2 = Recombinant SIK2 (Homo sapiens (Human), UniProt Q9H0K1); assay: biochemical
Description: Assays were performed in base reaction buffer (20 mM Hepes (pH 7.5), 10 mM MgCl2, 1 mM EGTA, 0.02% Brij35, 0.02 mg/mL BSA, 0.1 mM Na3VO4, 2 mM DTT, 1% DMSO). Compounds were dissolved in 100% DMSO in a 10 mM stock. […] Assays were performed for 20 minutes at room temperature, after which time ^33P-ATP (10 μCi/μL) was added followed by incubation for another 120 minutes at room temperature. Thereafter, radioactivity incorporated into the pEY peptide substrate was detected by filter-binding method. Kinase activity data were expressed as the percent remaining kinase activity in test samples compared to DMSO reactions. IC50 values and curve fits were obtained using Prism (GraphPad Software).

RANKL = RANKL gene expression in Ocy454 cells (RT-qPCR); conditions: maximal RANKL fold induction versus DMSO, four hours;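 note: Ocy454 cells moved to 37 °C for osteocytic differentiation before compound exposure, RANKL mRNA by SYBR Green qRT-PCR, 2^−ΔΔCT with β-actin normalization, duplicate wells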
[1] = recombinant SIK2 2.5 nM, 1 μM ATP, read-out: SIK2 IC50

Sequence of Recombinant SIK2 (Q9H0K1 whole entry): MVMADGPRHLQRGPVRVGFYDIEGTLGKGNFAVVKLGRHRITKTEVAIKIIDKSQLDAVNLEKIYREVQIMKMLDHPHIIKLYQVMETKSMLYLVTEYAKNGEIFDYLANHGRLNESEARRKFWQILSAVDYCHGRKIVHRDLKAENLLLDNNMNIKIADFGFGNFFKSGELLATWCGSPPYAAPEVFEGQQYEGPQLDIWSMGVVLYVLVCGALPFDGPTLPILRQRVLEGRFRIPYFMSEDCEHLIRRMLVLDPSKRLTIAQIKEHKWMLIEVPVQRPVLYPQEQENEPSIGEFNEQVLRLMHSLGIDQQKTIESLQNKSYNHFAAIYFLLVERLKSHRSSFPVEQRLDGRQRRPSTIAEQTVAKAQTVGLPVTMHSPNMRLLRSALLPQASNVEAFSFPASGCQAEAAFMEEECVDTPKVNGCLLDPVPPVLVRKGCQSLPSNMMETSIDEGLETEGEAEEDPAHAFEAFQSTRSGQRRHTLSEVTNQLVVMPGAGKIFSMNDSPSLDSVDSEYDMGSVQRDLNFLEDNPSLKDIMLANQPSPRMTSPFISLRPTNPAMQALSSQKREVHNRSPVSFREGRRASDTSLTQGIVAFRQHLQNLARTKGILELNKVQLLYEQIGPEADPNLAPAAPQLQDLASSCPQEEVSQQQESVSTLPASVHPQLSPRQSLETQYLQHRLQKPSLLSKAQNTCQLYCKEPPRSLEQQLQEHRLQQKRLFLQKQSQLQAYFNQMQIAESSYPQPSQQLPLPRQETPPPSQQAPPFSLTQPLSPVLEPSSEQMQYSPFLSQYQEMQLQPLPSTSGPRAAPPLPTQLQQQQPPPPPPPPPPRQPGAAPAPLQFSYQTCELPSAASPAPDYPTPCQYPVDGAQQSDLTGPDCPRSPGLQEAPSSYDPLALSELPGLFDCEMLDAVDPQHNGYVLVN

| IC50 (Recombinant SIK2; initial in vitro testing, read-out: SIK2 inhibition IC50) | Compound | IC50 (Recombinant SIK2; [1]) | RANKL Fold Induction (RANKL) |
| --- | --- | --- | --- |
| – | CN1CC(Oc2cccc3ccc(-n4cnc5cc(OCC6(C)COC6)ccc54)nc23)C1 [Example 11, 8-((1-Methylazetidin-3-yl)oxy)-2-(5-((3-methyloxetan-3-yl)methoxy)-1H-benzo[d]imidazol-1-yl)quinoline] | 22.7 nM | 1.38 fold |
| – | CCn1cc(-c2cnc3c(-c4ccc(C#N)cc4)cnn3c2)cn1 [Example 63, 4-[6-(1-Ethylpyrazol-4-yl)pyrazolo[1,5-a]pyrimidin-3-yl]benzonitrile] | 3.4 nM | 0.89 fold |
| – | Cc1cn(-c2cccc3ccc(-n4cnc5cc(OCC6(C)COC6)ccc54)nc23)cn1 [Example 1, 8-(4-Methylimidazol-1-yl)-2-[5-[(3-methyloxetan-3-yl)methoxy]benzimidazol-1-yl]quinoline] | 30.7 nM | 3.08 fold |
| – | N#Cc1ccc(-c2cnc3cc(-c4cnn(C5COC5)c4)ccn23)cc1 [Example 50, 4-(7-(1-(oxetan-3-yl)-1H-pyrazol-4-yl)imidazo[1,2-a]pyridin-3-yl)benzonitrile] | 2.34 nM | 15.84 fold |
| – | N#Cc1ccc(-c2cnn3cc(-c4cnn(C5CC5)c4)ccc23)cc1 [Example 54, 4-(6-(1-cyclopropyl-1H-pyrazol-4-yl)pyrazolo[1,5-a]pyridin-3-yl)benzonitrile] | 2.24 nM | 9.07 fold |
| < 0.1 nM | COc1cc(-c2cnc3cc(-c4cnn(C5CC5)c4)ccn23)cc(OC)c1C(=O)NN [Cmpd. 55A, 4-(7-(1-cyclopropyl-1H-pyrazol-4-yl)imidazo[1,2-a]pyridin-3-yl)-2,6-dimethoxybenzohydrazide] | – | – |
| – | CCn1cc(-c2c(OC)cc(-c3cnn4cc(-c5cnn(C6CC6)c5)ccc34)cc2OC)nn1 [Example 65, 6-(1-Cyclopropylpyrazol-4-yl)-3-[4-(1-ethyltriazol-4-yl)-3,5-dimethoxy-phenyl]pyrazolo[1,5-a]pyridine] | 23.7 nM | – |
| – | N#Cc1ccc(-n2cnc3cc(-c4cnn(C5CC5)c4)ccc32)cc1 [Example 44, 4-(5-(1-Cyclopropyl-1H-pyrazol-4-yl)-1H-benzo[d]imidazol-1-yl)benzonitrile] | 2.34 nM | 3.07 fold |
| – | COc1cc(-c2cnc3cc(OCC4(C)COC4)ccn23)cc(OC)c1C#N [Example 40, 2,6-dimethoxy-4-(7-((3-methyloxetan-3-yl)methoxy)imidazo[1,2-a]pyridin-3-yl)benzonitrile] | 9.87 nM | – |
| – | N#Cc1ccc(-c2cnn3cc(-c4cnn(C5CC5)c4)cnc23)cc1 [Example 64, 4-[6-(1-Cyclopropylpyrazol-4-yl)pyrazolo[1,5-a]pyrimidin-3-yl]benzonitrile] | 8.8 nM | 0.47 fold |
| – | N#Cc1ccc(-c2cnc3cc(-n4cnc(C5CC5)c4)ccn23)cc1 [Example 48, 4-[7-(4-Cyclopropylimidazol-1-yl)imidazo[1,2-a]pyridin-3-yl]benzonitrile] | 7.65 nM | – |
| – | CC1(COc2ccc3c(c2)ncn3-c2ccc3cccc(OC4CNC4)c3n2)COC1 [Example 9, 8-(azetidin-3-yloxy)-2-(5-((3-methyloxetan-3-yl)methoxy)-1H-benzo[d]imidazol-1-yl)quinoline] | 24.6 nM | 9.69 fold |
| – | CCn1cc(-c2ccc3c(c2)ncn3-c2ccc(C#N)cc2)cn1 [Example 43, 4-[5-(1-Ethylpyrazol-4-yl)benzimidazol-1-yl]benzonitrile] | 5.89 nM | 7.09 fold |
| – | N#Cc1ccc(-c2cnc3cc(-c4cn(C5CC5)nn4)ccn23)cc1 [Example 66, 4-[7-(1-Cyclopropyltriazol-4-yl)imidazo[1,2-a]pyridin-3-yl]benzonitrile] | 37 nM | – |
| – | CCc1nnc(-c2c(Cl)cc(-c3cnc4cc(-c5cnn(C)c5)ccn34)cc2Cl)o1 [Example 59, 2-(2,6-dichloro-4-(7-(1-methyl-1H-pyrazol-4-yl)imidazo[1,2-a]pyridin-3-yl)phenyl)-5-ethyl-1,3,4-oxadiazole] | 270 nM | – |
